Experimental data reported in patent US20180117029A1, “Targeting Metabolic Vulnerability in Triple-Negative Breast Cancer” (Beth Israel Deaconess Medical Center, Inc., priority 2016, published 2018).

Tests used:
[1] = tested on: MDA-MB-231 tumor xenografts; assay: MDA-MB-231 xenograft combination therapy study (tumor volume); format: in vivo, nude mice; conditions: for growth of MDA-MB-231 tumor xenografts (tumor volume): leflunomide 7.5 mg/kg i.p., doxorubicin 1 mg/kg i.p., 28 days
Method: Xenograft studies: Female nude mice (6 weeks old) were purchased from Taconic and maintained and treated under specific pathogen-free conditions. All procedures were approved by the Institutional Animal Care and Use Committee at Beth Israel Deaconess Medical Center (BIDMC) and conform to the federal guidelines for the care and maintenance of laboratory animals. The mice were injected subcutaneously with 4×10^6 MDA-MB-231 cells in medium containing 50% growth-factor-reduced, phenol red-free Matrigel (Corning). Tumor formation was examined every two to three days for the duration of the experiment. […] Tumors were collected and flash-frozen 24 hours after animals were exposed to vehicle or doxorubicin. […] Leflunomide (7.5 mg/kg) was administered on days 1-7, 10, 14, 17, 21 and 24 by i.p. injection. Doxorubicin (1 mg/kg) was administered on days 1, 7, 14 and 21 by i.p. injection. Mice were weighed on days 1, 7, 14, 21 and 28. Tumor volume was calculated using the following equation: Tumor volume=(π/6)(W^2)(L), where W represents width, and L represents length.

tumor xenograft models = conditions: single agent, references 22, 23; cited from earlier work
[2] = clinical use; cited from earlier work
SUM-159PT cells [3] = assay: Fluorescence-based deoxyribonucleoside triphosphate assay in SUM-159PT cells; format: cell-based; conditions: for dCTP and dTTP (pyrimidine nucleoside triphosphate) levels, fluorescence-based assay: 0.5 μM doxorubicin or 12.5 μM cisplatin, 10 hours
Method: (§1) Deoxyribonucleoside triphosphate assay: Cells were maintained in full growth medium, and fresh medium was added at the time cells were treated with doxorubicin. In some cases, SUM-159PT cells were switched to Ham's F12 medium lacking glutamine. For metabolite extraction, medium was aspirated and ice-cold 60% (v/v) methanol was added. The insoluble material in lysates was pelleted by centrifugation at 10,000 g for 10 min. The resulting metabolite-containing supernatants were evaporated using a refridgerated SpeedVac. Samples were re-suspended in water and deoxyribonucleside triphosphate levels were measured as previously described (12).

SUM-159PT cells [4] = assay: Propidium iodide viability assay in SUM-159PT cells; format: cell-based; conditions: for single-agent activity (percentage of dead cells) / sensitization of SUM-159PT cells to doxorubicin (percentage of dead cells): 80 μM PALA; for single-agent activity (percentage of dead cells): 0.3 μM brequinar or 20 μM A771726, without doxorubicin; for sensitization of SUM-159PT cells to doxorubicin (percentage of dead cells): 0.3 μM brequinar or 20 μM A771726 pre-treatment 12 hours
Method: Propidium iodide viability assay: Cell viability was assayed with a prodium iodide-based plate reader assay, as previously described (25). Briefly, cells in 96-well plates were treated with a final concentration of 30 μM propidium iodide for 60 minutes at 37° C. The initial fluorescence intensity was measured before digitonin was added to each well at a final concentration of 600 μM. After incubating for 30 minutes at 37° C., the final fluorescence intensity was measured. The fraction of dead cells was calculated by dividing the background-corrected initial fluorescence intensity by the final fluorescence intensity.

[5] = tested on: ovarian cancer cells (OVCAR3, OVCAR8); assay: Viability by propidium iodide uptake in ovarian cancer cells; format: cell-based, human; conditions: brequinar pre-treatment 16 h, then doxorubicin 48 hours
Method: Since ovarian cancers display an increase in pyrimidine nucleotides following chemotherapy, we investigated the ability of pyrimidine synthesis inhibitors to sensitize these cells to chemotherapy. Cells were treated with varying doses of doxorubicin in combination with the DHODH inhibitor brequinar for 48 hours, and viability measured by propidium iodide uptake. As observed in breast cancer cells, brequinar also sensitized ovarian cancer cells to doxorubicin (FIGS. 8A-B).

SUM-159PT cells [6] = assay: LC-MS/MS metabolomics profiling of SUM-159PT cells; format: cell-based; conditions: 0.5 μM doxorubicin, 10 hours, versus vehicle
Method: (§2) LC-MS/MS metabolomics profiling: For in vitro studies, SUM-159PT cells were maintained in full growth medium, and fresh medium was added at the time cells were treated with doxorubicin. For metabolite extraction, medium from biological triplicates was aspirated and ice-cold 80% (v/v) methanol was added. Cells and the metabolite-containing supernatants were collected and the insoluble material in lysates was pelleted by centrifugation at 10,000 g for 10 min. The resulting supernatant was evaporated using a refridgerated SpeedVac. For in vivo studies, ice-cold 80% (v/v) methanol was added to flash-frozen tumor tissue. Tissue was homogenized using a TissueLyser (Qiagen). The insoluble material was pelleted by centrifugation at 10,000 g for 10 min. The resulting supernatant was evaporated using a refridgerated SpeedVac. Samples were re-suspended using 20 μl HPLC-grade water for mass spectrometry. Ten microlitres was injected and analysed using a 5500 QTRAP hybrid triple quadrupole mass spectrometer (AB/SCIEX) coupled to a Prominence UFLC HPLC system (Shimadzu) with selected reaction monitoring (SRM). Peak areas from the total ion current for each metabolite SRM transition were integrated using MultiQuant v2.0 software (AB/SCIEX). Data analysis was performed using MetaboAnalyst.

[7] = tested on: TNBC cell lines (HCC1143, MDA-MB-468, CAL51 and MDA-MB-231); assay: Fluorescence-based deoxyribonucleoside triphosphate assay in additional TNBC cell lines; conditions: 0.5 μM doxorubicin, 10 hours; HCC1143, MDA-MB-468, CAL51, MDA-MB-231
Method: as §1

[8] = tested on: de novo pyrimidine synthesis pathway in SUM-159PT cells; assay: Isotope labeling with L-glutamine (amide-15N), flux through de novo pyrimidine synthesis; format: cell-based; conditions: 0.5 μM doxorubicin, 4 hours, then 1 hour labeling
Method: Isotope labeling: Ham's F12 medium lacking glutamine (Sigma-Aldrich) was supplemented with 100 μM L-glutamine (amide-^15N). SUM-159PT cells were treated with doxorubicin for 4 hours, at which point medium containing doxorubicin was aspirated and labeled medium was added to the cells. After 1 hour of labeling, cellular metabolites were extracted as described above and quantified using SRM on a 5500 QTRAP mass spectrometer using a protocol to detect ^15N-labelled isotopologues of metabolites in the de novo pyrimidine synthesis pathway.

[9] = tested on: CAD, ERK and S6K1 phosphorylation in SUM-159PT cells; assay: Immunoblotting of CAD, ERK and S6K1 phosphorylation in SUM-159PT cells; format: cell-based
Method: (§3) Immunoblotting: Cells were washed with ice-cold PBS and lysed in radioimmunoprecipitation buffer (RIPA; 1% NP-40, 0.5% sodium deoxycholate, 0.1% SDS, 150 mmol/L NaCl, 50 mmol/L Tris-HCl, pH 7.5, protease inhibitor cocktail, 50 nmol/L calyculin A, 1 mmol/L sodium pyrophosphate, and 20 mmol/L sodium fluoride). Cell extracts were cleared by centrifugation and protein concentration was measured with the Bio-Rad DC protein assay. Lysates were then resolved on acrylamide gels by SDS-PAGE and transferred electrophoretically to nitrocellulose membrane (Bio-Rad). Blots were blocked in Tris-buffered saline (TBST) buffer (10 mmol/L Tris-HCl, pH 8, 150 mmol/L NaCl and 0.2% Tween 20) containing 5% (w/v) nonfat dry milk and then incubated with primary antibody overnight. Membranes were incubated with HRP-conjugated secondary antibody and developed using enhanced chemiluminescence substrate (EMD Millipore).

[10] = tested on: CAD phosphorylation in TNBC cell lines (HCC1143, MDA-MB-468, CAL-51 and MDA-MB-231); assay: Immunoblotting of CAD phosphorylation in additional TNBC cell lines; format: cell-based; conditions: 0.5 μM doxorubicin, 4 hours; HCC1143, MDA-MB-468, CAL51, MDA-MB-231
Method: as §3

SUM-159PT cells [11] = assay: Mitochondrial respiration (oxygen consumption rate, Seahorse analyzer); format: cell-based
Method: Mitochondrial respiration: Mitochondrial respiration was assessed using the Seahorse XFe-96 Analyzer (Seahorse Bioscience). SUM-159PT cells (50,000 cells per well) were treated with vehicle control, 0.5 μM Doxorubicin, 20 μM A771726, or the combination (A771726 & Doxorubicin) for 4 hours in normal media conditions. Following this incubation, media was changed to a non-buffered, serum-free Seahorse Media (Seahorse Bioscience, Catalog #102353) supplemented with 5 mM glucose, 2 mM L-glutamine, and 1 mM sodium pyruvate, and the oxygen consumption rate (OCR) was measured. In addition, OCR was measured for 30 minutes upon drug treatment and cells were subsequently challenged with either 1 μM Oligomycin or 0.5 μM Antimycin A to assess their effect on mitochondrial respiration. All experiments were normalized to cell number.

[12] = tested on: p-H2A.X (Ser139) in SUM-159PT cells; assay: H2A.X phosphorylation (DNA damage) by immunoblotting and immunofluorescence; format: cell-based; conditions: 0.5 μM doxorubicin, 10 hours
Method: as §3
Immunofluorescence: Cells plated on coverslips were fixed with 2% paraformaldehyde for 10 minutes, permeabilized with 0.5% Triton X-100, and blocked with 1% BSA in 20 mmol/L Tris-HCl, pH 7.5, for 20 minutes. Coverslips were then incubated with Alexa Fluor® 647—conjugated anti-phospho H2A.X 5139 antibody (1:100) for 3 hours. […] Images of cells were acquired using a fluorescence microscope (Nikon Eclipse Ti) and digital image analysis software (NIS-Elements, Nikon).

[13] = tested on: MDA-MB-231 xenograft tumors; assay: LC-MS/MS metabolomics profiling of MDA-MB-231 xenograft tumors; format: in vivo, nude mice; conditions: 1 mg/kg doxorubicin, 24 hours, versus vehicle-treated tumors
Method: as §2

[14] = tested on: human ovarian cancer cell lines (Karumochi, Ovcar3, Ovcar8, Skov3); assay: LC-MS/MS metabolite profiling of ovarian cancer cell lines; format: cell-based; conditions: 2.5 μM cisplatin or 0.5 μM doxorubicin, 24 hours
Method: We treated four different human ovarian cancer cell lines with 2.5 μM cisplatin or 0.5 μM doxorubicin for 24 hours and harvested polar metabolites. The samples were profiled using LC-MS/MS for 303 endogenous metabolites. As in breast cancer cells, we observed increases in pyrimidine metabolites (FIGS. 7A-D).

[15] = 40 μM PALA, 0.5 μM doxorubicin 10 hours

Cc1oncc1C(=O)Nc1ccc(C(F)(F)F)cc1 [leflunomide]
growth of MDA-MB-231 tumor xenografts (tumor volume) [1]: did not significantly affect | sensitization of MDA-MB-231 xenograft tumors to doxorubicin ([1]; leflunomide with doxorubicin 1 mg/kg): drastically sensitizes | anti-tumor activity in tumor xenograft models (tumor xenograft models): anti-tumor activity | tolerability in humans [2]: well tolerated

O=C(O)C[C@H](NC(=O)CP(=O)(O)O)C(=O)O [PALA, N-(phosphonacetyl)-L-aspartate]
effect on doxorubicin-induced alterations in dTTP levels (SUM-159PT cells [3]; [15]): did not inhibit | effect on increase in dCTP levels induced by doxorubicin (SUM-159PT cells [3]; [15]): effectively abrogated | single-agent activity (percentage of dead cells) (SUM-159PT cells [4]): minimal single-agent activity | sensitization of SUM-159PT cells to doxorubicin (percentage of dead cells) (SUM-159PT cells [4]; then doxorubicin 48 hours): dramatically sensitized

Cc1c(-c2ccc(-c3ccccc3F)cc2)nc2ccc(F)cc2c1C(=O)O [brequinar]
single-agent activity (percentage of dead cells) (SUM-159PT cells [4]): minimal single-agent activity | sensitization of SUM-159PT cells to doxorubicin (percentage of dead cells) (SUM-159PT cells [4]; then doxorubicin 48 hours): dramatically sensitized | sensitization of ovarian cancer cells to doxorubicin (viability) [5]: sensitized

COc1cccc2c1C(=O)c1c(O)c3c(c(O)c1C2=O)C[C@@](O)(C(=O)CO)C[C@@H]3O[C@H]1C[C@H](N)[C@H](O)[C@H](C)O1 [doxorubicin]
abundance of purine nucleotide species, LC-MS/MS (SUM-159PT cells [6]): elevated | abundance of pyrimidine nucleotide species, LC-MS/MS (SUM-159PT cells [6]): increased the abundance of the majority of pyrimidine nucleotide species | increase in deoxycytidine triphosphate (dCTP) level, LC-MS/MS (SUM-159PT cells [6]): greater than 2 fold | increase in deoxythymidine triphosphate (dTTP) level, LC-MS/MS (SUM-159PT cells [6]): greater than 2 fold | dCTP and dTTP (pyrimidine nucleoside triphosphate) levels, fluorescence-based assay (SUM-159PT cells [3]): robustly increased | abundance of dCTP and dTTP [7]: increased the abundance | incorporation of 15N-glutamine label into N-carbamoyl-aspartate [8]: significant increase | ERK1/2 phosphorylation ([9]; 0.5 μM doxorubicin): increase | phosphorylation state of CAD at the S6K1 site (Ser1859) ([9]; 0.5 μM doxorubicin): no measurable changes | phosphorylation state of S6K1 ([9]; 0.5 μM doxorubicin): no measurable changes | phosphorylation of CAD at the ERK site (Thr456) ([9]; 0.5 μM doxorubicin, within two hours): striking increase | CAD Ser1859 phosphorylation [10]: No changes | CAD Thr456 phosphorylation [10]: stimulated | cell viability (percentage of dead cells) (SUM-159PT cells [4]; 0.5 μM doxorubicin alone, 48 hours, SUM-159PT): negligible effects on cell viability | oxygen consumption rate (OCR) (SUM-159PT cells [11]; 0.5 μM doxorubicin or 20 μM A771726, 4 hours, 50,000 SUM-159PT cells): negligible effect | sensitivity of OCR to oligomycin and antimycin (SUM-159PT cells [11]; 0.5 μM doxorubicin, 1 μM oligomycin, 0.5 μM Antimycin A): did not affect sensitivity | DNA damage (histone H2A.X phosphorylation) [12]: effectively induced DNA damage | abundance of pyrimidine nucleotide species in tumors, LC-MS/MS [13]: significant increase | growth of MDA-MB-231 tumor xenografts (tumor volume) [1]: cytostatic | pyrimidine metabolite abundance, LC-MS/MS [14]: increases

N#CC(=C(/N)Sc1ccccc1N)/C(C#N)=C(\N)Sc1ccccc1N [U0126]
effect on increase in pyrimidine nucleotides following doxorubicin exposure (SUM-159PT cells [3]; 5 μM U0126, 0.5 μM doxorubicin 10 hours): effectively suppressed | effect on doxorubicin-induced CAD Thr456 phosphorylation ([9]; 5 μM U0126 pre-treatment 12 hours, then 0.5 μM doxorubicin 4 hours): blocked

O=c1ccn([C@@H]2O[C@H](CO)[C@@H](O)[C@H]2O)c(=O)[nH]1 [uridine]
rescue: effect on efficacy of the A771726 plus doxorubicin combination treatment (percentage of dead cells) (SUM-159PT cells [4]; 100 μM uridine with 20 μM A771726 pre-treatment 12 hours, then doxorubicin 48 hours): completely blocked

N.N.[Cl][Pt][Cl] [cisplatin]
dCTP and dTTP (pyrimidine nucleoside triphosphate) levels, fluorescence-based assay (SUM-159PT cells [3]): Elevated levels | pyrimidine metabolite abundance, LC-MS/MS [14]: increases
